Tests used:
[1] = literature (Schmidt et al. 1984); cited from earlier work
[2] = Test B: In-vitro competitive aortic tissue binding assay; conditions: 100 μM compound, competition with [14C]4-amino-N-[(1S)-1-cyano-2-(4′-cyanobiphenyl-4-yl)ethyl]tetrahydro-2H-pyran-4-carboxamide, rat aortic homogenate
Experimental: Test B: In-Vitro Competitive Aortic Tissue Binding Assay
Aortic homogenate was prepared from the thoracic aortae of Han Wistar rats. Freshly isolated thoracic aortae were frozen, and later thawed and stripped of non-elastic material. […] Homogenate concentration was adjusted to 30 mg/mL in Puck's saline, and aliquots were stored at −80° C. until use. Positive and negative control compounds and test compounds were made up to 100 mM in DMSO, and added to 1 mL aliquots of aortic homogenate in Puck's saline for a final concentration of 100 μM. Homogenate samples were pre-incubated with test compounds at 37° C., rotating, overnight. [^14C]4-Amino-N-[(1S)-1-cyano-2-(4′-cyanobiphenyl-4-yl)ethyl]tetrahydro-2H-pyran-4-carboxamide was then added to all samples to a final concentration of 100 μM, and samples were incubated at 37° C., rotating, for a further 2 h. Protein was precipitated from each sample by the addition of 10 mL acetone, pre-chilled to −20° C. Samples were left overnight at −20° C. to allow complete precipitation. […] Precipitate was washed by resuspension in 10 mL 80% methanol in distilled water, and re-pelleted by centrifugation at 4,500× g at 4° C. for 20 min. […] After final wash, precipitate was air-dried, and dissolved overnight in 1 mL NCSII Tissue Solubiliser. 1 mL aliquots of supernatants were added to 5 mL Ultima Gold scintillation fluid (Perkin Elmer, MA, U.S.A.), and 1 mL solubilised pellets were added to 5 mL Hionic-Fluor scintillation fluid (Perkin Elmer, MA, U.S.A.). Radioactivity of samples was determined on a Beckman LS6500 multipurpose scintillation counter (Beckman Coulter, IN, U.S.A.). […] Duplicate samples were tested for each compound on each experimental occasion, and at least two experiments were run for each test compound. […] 1-way ANOVA and Bonferroni's multiple comparison tests were performed to calculate significance of differences from vehicle control.

[3] = biological target: recombinant human DPP1 (rhDPP1) (Homo sapiens (Human), UniProt P53634); experiment: Test A2: Fluorescence assay for recombinant human (RH) DPP1; type: biochemical; conditions: Test A2 (Examples 36-37); 96.4 pM rhDPP1, 50 μM H-Gly-Arg-AMC, pH 5.0, rt
recombinant human DPP1 (rhDPP1), sequence (P53634 231-394): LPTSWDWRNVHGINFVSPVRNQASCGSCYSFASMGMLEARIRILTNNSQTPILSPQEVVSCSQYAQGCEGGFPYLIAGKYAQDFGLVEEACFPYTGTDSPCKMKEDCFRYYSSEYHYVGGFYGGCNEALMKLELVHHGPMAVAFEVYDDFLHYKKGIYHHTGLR
recombinant human DPP1 (rhDPP1), sequence (P53634 25-134): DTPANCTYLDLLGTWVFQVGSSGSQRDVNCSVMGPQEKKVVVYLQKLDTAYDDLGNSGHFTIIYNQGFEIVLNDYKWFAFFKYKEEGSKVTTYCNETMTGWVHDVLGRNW
recombinant human DPP1 (rhDPP1), sequence (P53634 395-463): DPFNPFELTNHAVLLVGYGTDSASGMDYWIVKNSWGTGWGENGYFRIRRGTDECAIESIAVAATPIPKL
Experimental: Test A2: Fluorescence Assay for Recombinant Human (RH) DPP1
The activity of DPP1 was determined by measuring the enzymatic release of aminomethyl coumarin (AMC) from the peptide substrate (H-Gly-Arg-AMC), which leads to an increase in fluorescence intensity at λex=350 nm and λem=450 nm. The assay was carried out in black 384 well plates in a final volume of 10 μl at rt. The assay conditions contained the following: 25 mM piperazine buffer pH 5.0; 50 mM NaCl, 5 mM DTT; 0.005 (v/v) Triton X-100; 50 μM H-Gly-Arg-AMC and 96.4 pM rhDPP1 Potential inhibitors were diluted in DMSO to generate 100× of the final assay concentration. The compounds were tested at 10 concentrations with half-log dilution steps (highest concentration typically 1 μM) and with a final DMSO concentration of 1% (v/v). Routinely, inhibitors were pre-incubated with rhDPP1 for 30 min prior to the addition of the peptide substrate to start the reaction for a further 30 min. After incubation the plates were read in a fluorescence plate reader using the above emission and excitation wavelengths. The pIC50 were determined using a 4-paramater logistic equation in a non-linear curve fitting routine (Smartfit, Genedata Screener®). […]

[4] = Rat quantitative whole-body autoradiography (QWBA) studies, aortic retention; type: in vivo

Structure (SMILES) | Aortic Tissue Binding [2] | other results
CC(c1ccc(Cl)c(Cl)c1)N1N=C(N)CC1=O (stereo not drawn) [muzolimine] |  | retention in the aorta in QWBA studies [1]: retained selectively in the aorta
Cn1c(=O)oc2ccc(-c3ccc(C[C@@H](C#N)NC(=O)C4(N)CCOCC4)cc3)cc21 [WO2010/128324 (Example 17)] | Strong binder | 
CC[C@@H](/C=C/C(=O)N1CCc2ccccc21)NC(=O)[C@@H]1CNCCCO1.O=C(O)C(F)(F)F [Example 36] |  | DPP1 activity, pIC50 [3]: 8.3
N#Cc1ccc(-c2ccc(C[C@@H](C#N)NC(=O)C3(N)CCOCC3)cc2)cc1 [WO2010/128324 (Ex. 3), 4-amino-N-[(1S)-1-cyano-2-(4′-cyanobiphenyl-4-yl)ethyl]tetrahydro-2H-pyran-4-carboxamide] | Strong binder reference | aortic retention in rat QWBA studies [4]: high level of aortic retention
N#Cc1ccc(-c2ccc(C[C@@H](C#N)NC(=O)[C@@H]3CCCCN3)cc2)cc1 [WO2009/074829 (Example 24)] | Binder | 
CC(C)C[C@@H](/C=C/C(=O)N1CCc2ccccc21)NC(=O)[C@@H]1CNCCCO1.O=C(O)C(F)(F)F [Example 37, (2S)-2-[(2E,4S)-1-(2,3-Dihydro-1H-indol-1-yl)-6-methyl-1-oxohept-2-en-4-yl]-1,4-oxazepane-2-carboxamide trifluoroactetate] |  | DPP1 activity, pIC50 [3]: 8.28
Cn1c(=O)oc2ccc(-c3ccc(C[C@@H](C#N)NC(=O)[C@@H]4CNCCCO4)cc3)cc21 [Example 2, (2S)-N-{(1S)-1-Cyano-2-[4-(3-methyl-2-oxo-2,3-dihydro-1,3-benzoxazol-5-yl)phenyl]ethyl}-1,4-oxazepane-2-carboxamide] | No binder | 
Cn1c(=O)oc2ccc(-c3ccc(C[C@@H](C#N)NC(=O)[C@@H]4CCCCN4)cc3)cc21 [WO2009/074829 (Example 96)] | Medium binder | 
